No end group written: not given here.
Tested on: rat spinal motor neurons
Test: in vitro rat motor neuron cell survival assay
Format: cell-based
Settings: for MN survival (% Ctrl): 10 μg/mL peptide, medium lacking NTFs, surviving motor neurons as percentage of those surviving with NTFs alone (control), mean ± SD of five samples; for trophic effect on motor neuron cell death (in words): 10 μg/ml, culture medium lacking the conventional NTFs
Experimental: FIG. 1. Illustrates a survival assay of exemplary MNTF peptides on motor neuron survival. Motor neurons were cultured from rat spinal cords and grown in culture for 3 days in the presence of BDNF, GDNF and CNTF. After 3 days, the cells were grown in the absence of the conventional trophic factors but with the indicated MNTF peptides at 10 microgram/ml. After 48 hours the number of live cells was determined. The graph indicates mean+/−SD of five samples (BDNF=Brain derived neurotrophic factor; GDNF=Glial derived neurotrophic factor; CNTF=Ciliary neurotrophic factor).
Purification and culture of motor neurons. Spinal motor neuron cultures were prepared from E14.5 Sprague-Dawley rats (Charles River Labs). Briefly, dissected spinal cords were digested in 0.025% trypsin (Gibco) for 8 min at 37° C. The tissue was transferred to a solution containing L-15 medium (Gibco) supplemented with 2% horse serum (Gibco), insulin (5 μg/ml); putrescine (1×10^-4 M), conalbumin (100 μg/ml), sodium selenite (3×10^-8 M), progesterone (2×10^-8 M), glucose (3.6 mg/ml), penicillin (100 IU/ml), streptomycin (100 μg/ml), DNAse (100 μg/ml) and bovine serum albumin (BSA; 0.4%). […] The layered suspension was centrifuged at 830×g for 15 min. […] The motor neurons medium consists of neurobasal medium (Gibco) supplemented with B27 supplement (Gibco), glutamate (25 μM), 2-mercaptoethanol (25 μM) and 2% horse serum. The motor neurons were plated onto laminin-coated coverslips at a density of 3000 cells/coverslip unless otherwise stated. A cocktail of neurotrophic factors (NTFs: 1 ng/ml BDNF, 100 pg/ml GDNF, 10 ng/ml CNTF) was added at the time of cell seeding. After 24 h in culture, motor neurons were treated by addition of the different analogs diluted in motor neurons medium lacking NTFs.
Survival assay. Spinal motor neurons were prepared from E14.5 rat embryos as described. Cells were cultured in the presence of NTFs for 24 h and viability (VI) was estimated by counting the number of calcein AM-positive cells. For viability studies, motor neurons were cultured in the absence of NTFs with the addition of the analogs or GM6. The percentage of viable motor neurons was calculated by counting the number of neurons.
Statistical analysis. The number of surviving motor neurons for each treatment was expressed as a percentage of the number of motor neurons surviving in the presence of NTFs alone (control). Five dishes were used for each condition. Differences between treatments were analyzed for their statistical significance by one-way ANOVA with post hoc Tukey's testing.

Substance | MN survival (% Ctrl) | trophic effect on motor neuron cell death (in words) | trophic effect on motor neuron cell death (in words) (listed as GM6)
SRYAR [compound 2312, 5-mer MNTF peptide, metabolite of the 6mer] | 12.02 ± 2.31 |  | 
YAR [compound 2310, 3-mer MNTF peptide, metabolite of the 6mer] | 12.26 ± 1.70 |  | 
FSRY [compound 2308, 4-mer MNTF peptide, metabolite of the 6mer] | 66.38 ± 5.86 |  | 
FSR [compound 2307, 3-mer MNTF peptide, metabolite of the 6mer] | 35.00 ± 5.28 |  | 
SRYA [compound 3223, 4-mer MNTF peptide] | 15.46 ± 1.82 |  | 
SRY [compound 3221, 3-mer MNTF peptide] | 9.08 ± 2.32 |  | 
RYAR [compound 2311, 4-mer MNTF peptide, metabolite of the 6mer] | 9.66 ± 2.50 |  | 
RYA [compound 3222, 3-mer MNTF peptide] | 10.64 ± 1.72 |  | 
FSRYA [compound 2309, 5-mer MNTF peptide, metabolite of the 6mer] | 81.5 ± 4.50 |  | 
FSRYAR [GM6(GMP014), synthesized 6 amino acid peptide analog of MNTF] | 94.02 ± 3.53 | demonstrated protection from neuronal cell loss | demonstrated an attenuation of motor neuron cell death
